These are literature values, as cited in US20240156825A1, “USE OF SELECTIVE VEGFR2 AND FGFR1 INHIBITORS” (Fountain Therapeutics Inc., priority 2022, published 2024).

The target of one series is VEGFR2 (Homo sapiens, UniProt P35968). Particulars: reported IC50 to VEGFR2, read-out: VEGFR2 IC50_μM, cited from earlier work.
The next series has as its system any gene target. Particulars: next lowest IC50 value to any gene target, read-out: Min IC50_μM, cited from earlier work.
[1] abbreviates: Table 3, selective inhibitors of VEGFR2.

Like-named read-outs stand apart in the source and are kept apart here.

Chain of VEGFR2 (P35968 20-1356, species assumed): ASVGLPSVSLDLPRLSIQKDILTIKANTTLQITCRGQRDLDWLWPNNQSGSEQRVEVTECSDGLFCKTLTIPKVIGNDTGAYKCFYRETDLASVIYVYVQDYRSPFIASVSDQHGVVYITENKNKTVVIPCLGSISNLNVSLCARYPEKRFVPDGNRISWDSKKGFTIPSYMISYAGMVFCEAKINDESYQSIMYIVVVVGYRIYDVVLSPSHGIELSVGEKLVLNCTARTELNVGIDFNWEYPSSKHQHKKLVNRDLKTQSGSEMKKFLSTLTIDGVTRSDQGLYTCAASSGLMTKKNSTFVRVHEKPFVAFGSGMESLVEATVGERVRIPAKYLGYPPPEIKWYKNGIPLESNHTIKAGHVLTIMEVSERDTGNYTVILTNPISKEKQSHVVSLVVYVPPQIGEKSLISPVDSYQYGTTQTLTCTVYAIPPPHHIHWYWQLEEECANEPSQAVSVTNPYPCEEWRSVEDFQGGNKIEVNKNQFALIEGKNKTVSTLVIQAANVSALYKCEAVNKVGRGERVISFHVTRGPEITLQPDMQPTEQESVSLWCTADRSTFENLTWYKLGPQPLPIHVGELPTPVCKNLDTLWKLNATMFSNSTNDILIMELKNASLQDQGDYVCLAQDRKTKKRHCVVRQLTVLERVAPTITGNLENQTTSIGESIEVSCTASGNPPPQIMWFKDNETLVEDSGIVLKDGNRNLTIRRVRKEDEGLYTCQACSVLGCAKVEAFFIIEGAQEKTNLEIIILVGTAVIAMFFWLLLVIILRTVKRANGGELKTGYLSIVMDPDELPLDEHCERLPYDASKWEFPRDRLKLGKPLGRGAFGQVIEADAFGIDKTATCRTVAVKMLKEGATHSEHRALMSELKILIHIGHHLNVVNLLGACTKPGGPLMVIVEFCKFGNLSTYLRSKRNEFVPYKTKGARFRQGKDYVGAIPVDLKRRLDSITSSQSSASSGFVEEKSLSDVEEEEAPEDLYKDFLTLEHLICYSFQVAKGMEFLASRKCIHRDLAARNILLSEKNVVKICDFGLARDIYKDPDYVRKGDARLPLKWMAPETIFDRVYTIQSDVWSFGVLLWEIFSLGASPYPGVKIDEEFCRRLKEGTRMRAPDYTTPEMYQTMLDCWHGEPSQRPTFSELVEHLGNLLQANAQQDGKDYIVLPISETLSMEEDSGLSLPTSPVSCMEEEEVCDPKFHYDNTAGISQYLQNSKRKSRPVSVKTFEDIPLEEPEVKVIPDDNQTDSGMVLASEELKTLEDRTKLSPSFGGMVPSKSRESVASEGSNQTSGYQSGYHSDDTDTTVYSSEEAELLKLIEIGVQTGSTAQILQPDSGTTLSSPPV

Consider `COc1cc2c(Nc3ccc(Cl)c(Cl)c3)ncnc2cc1OC1C[C@@H]2CN(C)C[C@@H]2C1` (some centres unmarked) [compound 10253661], for which the IC50 on VEGFR2 (setting [1]) and with any gene target (Table 3) was 50 nM in each case.
For the compound `C[C@@H](Nc1ncnc2[nH]c(-c3ccc(NC(=O)CCCC(=O)NO)cc3)cc12)c1ccccc1` [compound 24900574], the IC50 on VEGFR2 and in the series on any gene target was 100 nM throughout.
Take `COc1cc2c(Nc3cc(F)c(Br)c(F)c3)ncnc2cc1OCC1CN(C)CCO1` (centres unmarked) [compound 57802849]: the IC50 at VEGFR2 (setting [1]) and in the series with any gene target (Table 3) was 50 nM throughout.
As for `COc1cc2c(Nc3ccc(Cl)c(Cl)c3)ncnc2cc1OCCC1CN(C)CC(C)(C)O1` (centres unmarked) [compound 57802732], the IC50 on VEGFR2 and in the series on any gene target was 50 nM throughout.
Consider `COCn1cc(C2=C(c3cc(OC)c(OC)c(OC)c3)C(=O)NC2)c2ccccc21` [compound 24894887], for which the figures for the IC50 on VEGFR2 and in the series on any gene target were 2300 nM and 3200 nM, respectively.
As to `COc1ccc(-c2cnc3cncc(Nc4ccc(N5CCCCC5)cc4)c3n2)cc1` [compound 57332844], the IC50 was 2050 nM at VEGFR2 and 2270 nM in the series on any gene target.
For the compound `COc1cc2c(Nc3ccc(Cl)c(Cl)c3)ncnc2cc1OCC1CN2CCOCC2CO1` (centres unmarked) [compound 58013804], the IC50 on VEGFR2 (setting [1]) and in the series on any gene target (Table 3) was 50 nM throughout.
With `COc1cc2c(Nc3ccc(Cl)c(Cl)c3)ncnc2cc1OCC1CN(C)C(C)(C)C(=O)O1` (centres unmarked) [compound 57802818], the IC50 on VEGFR2 (setting [1]) and in the series on any gene target (Table 3) was 50 nM in each case.
Consider `COc1cc2c(Nc3cc(Cl)c(Br)cc3F)ncnc2cc1OC[C@@H]1CN2CCOC[C@H]2CO1` [compound 66838467], for which the IC50 on VEGFR2 (setting [1]) and with any gene target (Table 3) was 50 nM throughout.
In the case of `Nc1ccc2c(c1)C(c1ccccc1Cl)=Nc1cn[nH]c1N2` [compound 136002661], the IC50 at VEGFR2 is 34 nM; in the series on any gene target it was 88 nM.
`COc1cc2c(Nc3ccc(F)c(Cl)c3F)ncnc2cc1OC[C@H]1CN2CCOC[C@H]2CO1` [compound 10028639]: the IC50 on VEGFR2 (setting [1]) and in the series with any gene target (Table 3) was 50 nM throughout.
Consider `COc1cc2nccc(Oc3ccc4c(C(=O)NC5CCC5)cccc4c3)c2cc1OC` [compound 24824448], for which the IC50 is 1.3 nM at VEGFR2 and 440 nM with any gene target.
Turning to `COc1cc2c(Nc3cc(F)c(Br)cc3F)ncnc2cc1OCC1CN(C)CCO1` (centres unmarked) [compound 57802916], the IC50 at VEGFR2 (setting [1]) and in the series on any gene target (Table 3) was 50 nM each time.
Regarding `O=C(CCCCCCCNC(=O)c1cc(Oc2ccc(NC(=O)Nc3ccc(Cl)c(C(F)(F)F)c3)cc2)ccn1)NO` [compound 25071593], the IC50 at VEGFR2 and with any gene target was 100 nM throughout.
Regarding `COc1cc2c(Nc3ccc(Cl)c(Cl)c3F)ncnc2cc1OC[C@@H]1CN2CCC[C@H]2CO1` [compound 57802793], the IC50 on VEGFR2 (setting [1]) and in the series on any gene target (Table 3) was 50 nM each time.
For the compound `COc1cc2nccc(Oc3ccc4c(C(=O)NC(C)C)cccc4c3)c2cc1OC` [compound 24822600], the IC50 at VEGFR2 is 5 nM; with any gene target, 190 nM.
Turning to `COc1ccc(NC(=O)Nc2ccc3c(c2)NC(=O)/C3=C\c2[nH]cc(C(=O)O)c2C)cc1` [compound 46898039], the IC50 at VEGFR2 (setting [1]) and in the series on any gene target (Table 3) was 0.5 nM throughout.
In the case of `C[C@@H](Nc1ncnc2[nH]c(-c3ccc(C(=O)NO)cc3)cc12)c1ccc(F)cc1` [compound 24900772], the IC50 on VEGFR2 (setting [1]) and with any gene target (Table 3) was 100 nM throughout.
Take `COc1cc2ncnc(Nc3cccc(Cl)c3)c2cc1OCCC(=O)NO` [compound 122195525]: the IC50 is 476 nM on VEGFR2 and 645 nM with any gene target.
In the case of `CC(C)(Nc1nc(Nc2ccc3ncsc3c2)[nH]c(=O)n1)c1ccccc1` [compound 135454992], the IC50 was 35 nM at VEGFR2 and 550 nM in the series with any gene target.
As to `COc1cc2c(Nc3ccc(Br)c(Cl)c3F)ncnc2cc1OC[C@@H]1CN(C)CC(=O)N1C` [compound 57802721], the IC50 on VEGFR2 and with any gene target was 50 nM in each case.
Consider `COc1cc(C2=C(c3c[nH]c4ccccc34)CNC2=O)cc(OC)c1OC` [compound 24894117], for which the IC50 on VEGFR2 was 31 nM; in the series with any gene target, 37 nM.
